Where a name gives a salt, the structure may show the parent alone. One block for each compound: values may come before it.
Test: in-vitro percutaneous transfer test with nude mouse skin in a diffusion cell
Assay type: in vitro ADME
Method: The test formulation was first impregnated into 1-inch diameter circles of a thin non-woven rayon fabric usually in amounts representing about 20 mg or more per cm^2 of skin. The impregnated fabric was applied to the outside or epidermal side of the skin while the inside or tissue side of the skin was exposed to an aerated and stirred volume of Ringer's injection fluid maintained at about 37° C. Samples were taken at intervals from the stirred solution and assayed for drug content. The calculated total amount of percutaneously transferred drug is expressed as mg drug per cm^2 of exposed skin.
Two circles of non-woven fabric were impregnated with each formulation (designated A1, A2 and B1, B2 respectively) and tested for percutaneous drug transfer across nude mouse skin.
Two circles of nonwoven fabric were impregnated with each formulation, so as to contain 2-3 mg of conjugated estrogens. These were applied to nude mouse skins (6 em^2 exposed surface) for transdermal penetration tests. The average of duplicate tests is given below, in units of µg of transferred estrogen per cm^2 of exposed skin surface.

Structure (SMILES): C[C@]12CC[C@@H]3c4ccc(OS(=O)(=O)O)cc4CC[C@H]3[C@@H]1CC[C@@H]2O [17-B -estradiol-3-sodium sulfate]
flux rates of formulations containing menthol: significantly higher flux rates

Structure (SMILES): C[C@]12CC[C@@H]3c4ccc(O)cc4CC[C@H]3[C@@H]1CC[C@@H]2O [17-β -estradiol]
percutaneous transfer with and without menthol (lipophilic vehicles, nude mouse skin): no significant differences

increase in percutaneous transfer in the presence of menthol (with vs without 5% menthol in a glycerol/propylene glycol vehicle, nude mouse skin): about a three fold increase
Structure (SMILES): CCc1cccc2c3c([nH]c12)C(CC)(CC(=O)O)OCC3 (stereo not drawn) [etodolac, 1.8-diethyl-1,3,4,9-tetrahydropyrano[3,4-b] indole-1-acetic acid]
